Laboratory results: ChEMBL document CHEMBL1201862, “PubChem BioAssay data set” (2004)
Where “and” joins values, the source holds several entries; their conditions need not be identical. Equal entries are not always repeated.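 All cell lines were grown in 96-well plates and treated with compound for 48 hours. At the GI50, growth is halved.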 Calls of active or inactive are those of the source. No stated cut-off is given here; in the data, active = GI50 up to about 1.1 µM and inactive = higher.

Assays:
Test in all cases: DTP human tumour cell line panel, 48 h
[1] = test system: NCI-H460
[2] = test system: A549
[3] = test system: 786-0
[4] = test system: MDA-MB-231
[5] = test system: OVCAR-5
[6] = test system: LOX IMVI
[7] = test system: TK-10
[8] = test system: MCF7
[9] = test system: Malme-3M
[10] = test system: OVCAR-8
[11] = test system: BT-549
[12] = test system: SN12C
[13] = test system: HT-29
[14] = test system: HCC 2998
[15] = test system: HCT-116
[16] = test system: K562
[17] = test system: CAKI-1
[18] = test system: MOLT-4
[19] = test system: UO-31
[20] = test system: CCRF-CEM

Row | SMILES | GI50 [1] | GI50 [2] | GI50 [3] | GI50 [4] | GI50 [5] | GI50 [6] | GI50 [7] | GI50 [8] | GI50 [9] | GI50 [10] | GI50 [11] | GI50 [12] | GI50 [13] | GI50 [14] | GI50 [15] | GI50 [16] | GI50 [17] | GI50 [18] | GI50 [19] | GI50 [20]
1 | O=C1CC(C(OCc2ccccc2)C(OCc2ccccc2)C(COCc2ccccc2)OCc2ccccc2)CC(=O)N1 (stereo not given) | > 75 µM (inactive) | 72.4 µM (inactive) | > 75 µM (inactive) | 71.4 µM (inactive) | > 75 µM (inactive) | > 75 µM (inactive) | > 75 µM (inactive) | > 100 µM (inactive) and 51.9 µM (inactive) | > 100 µM (inactive) | > 75 µM (inactive) | > 100 µM (inactive) | > 75 µM (inactive) | > 75 µM (inactive) | > 75 µM (inactive) | > 75 µM (inactive) |  |  |  |  | 
2 | Nc1ccc(-c2nc3cc(F)ccc3s2)cc1CO | 3.04 µM (inactive) | > 69 µM (inactive) | 30.9 µM (inactive) | 22.9 µM (inactive) | 60.8 µM (inactive) | 62.7 µM (inactive) |  | < 0.01 µM (active) | > 72.3 µM (inactive) | 28.6 µM (inactive) | 21.2 µM (inactive) | 32.7 µM (inactive) | > 100 µM (inactive) | 0.313 µM (active) | 53.6 µM (inactive) | > 100 µM (inactive) | > 56.5 µM (inactive) | > 100 µM (inactive) | 18.1 µM (inactive) | 89.5 µM (inactive)
3 | Cc1c(-c2ccccc2)c(C#N)c2nnn(-c3ccc(Cl)cc3)c(=O)n12 | 4.83 µM (inactive) | 21.5 µM (inactive) | 18.3 µM (inactive) | 36.3 µM (inactive) | > 100 µM (inactive) | 0.714 µM (active) | 77.1 µM (inactive) | 7.59 µM (inactive) | 81.3 µM (inactive) | 25.3 µM (inactive) | 56.8 µM (inactive) | 35.2 µM (inactive) | 15.8 µM (inactive) | 10.6 µM (inactive) | 12.8 µM (inactive) | 0.668 µM (active) | 13.3 µM (inactive) |  | 22.5 µM (inactive) | 18.3 µM (inactive)
4 | CCOC1CN=C(Nc2cccc3ccccc23)S1 (stereo not given) | > 10 µM (inactive) | > 10 µM (inactive) | > 10 µM (inactive) | > 10 µM (inactive) | > 10 µM (inactive) | > 10 µM (inactive) | > 10 µM (inactive) | > 10 µM (inactive) | > 10 µM (inactive) | > 10 µM (inactive) | > 10 µM (inactive) | > 10 µM (inactive) | > 10 µM (inactive) | > 10 µM (inactive) | > 10 µM (inactive) | > 10 µM (inactive) | > 10 µM (inactive) | > 10 µM (inactive) |  | > 10 µM (inactive)
5 | COc1ccc(C2=C(N)c3ncccc3C2=O)cc1 | > 100 µM (inactive) |  | > 100 µM (inactive) | > 100 µM (inactive) | > 100 µM (inactive) | > 100 µM (inactive) | > 10 µM (inactive) | > 100 µM (inactive) | 43.9 µM (inactive) | > 100 µM (inactive) | > 100 µM (inactive) | > 100 µM (inactive) | > 100 µM (inactive) | > 100 µM (inactive) | > 100 µM (inactive) | > 100 µM (inactive) | > 100 µM (inactive) | > 100 µM (inactive) | > 100 µM (inactive) | > 100 µM (inactive)
6 | C=C1c2nc3ccccc3n2C=C(c2ccc(Cl)cc2)N1c1ccccc1 | 12.4 µM (inactive) | 14.1 µM (inactive) | 13.3 µM (inactive) | 27.2 µM (inactive) | 26.5 µM (inactive) | 33.7 µM (inactive) | 12.4 µM (inactive) | 13 µM (inactive) | 12.1 µM (inactive) | 9.51 µM (inactive) | 6.64 µM (inactive) | 39.9 µM (inactive) |  | 13.3 µM (inactive) | 14 µM (inactive) | 40.6 µM (inactive) | 15.7 µM (inactive) | > 100 µM (inactive) | 13.4 µM (inactive) | > 100 µM (inactive)
7 | CCCCCCCCCCCCCCCCOCC(CCl)OP(=O)(O)OP(=O)(O)OCC1OC(n2ccc(N)nc2=O)C(O)C1O (stereo not given) | > 100 µM (inactive) | > 100 µM (inactive) | > 100 µM (inactive) | > 100 µM (inactive) | > 100 µM (inactive) | > 100 µM (inactive) | > 100 µM (inactive) | > 100 µM (inactive) | > 100 µM (inactive) | > 100 µM (inactive) | > 100 µM (inactive) | > 100 µM (inactive) | > 100 µM (inactive) | > 100 µM (inactive) | > 100 µM (inactive) | > 100 µM (inactive) | > 100 µM (inactive) | > 100 µM (inactive) | > 100 µM (inactive) | > 100 µM (inactive)
